Results taken from US20080182751A1, “Brassicaceae Plant Materials and Method for Their Use as Biopesticides” (Idaho Research Foundation, Inc., priority 2006, published 2008).

Assays:
[1] = pH stability of 4-OH benzyl ITC in 5 buffer solutions; assay type: physicochemical
Method: The pH stability of 4-OH benzyl ITC was assayed by incubating it in 5 buffer solutions (sodium acetate/acetic acid from pH range 3 to 5 and monosodium phosphate/phosphatic acid for pH above 5) with pHs ranging from 3.0 to 7.0. At specific times during the incubation a sample from the incubated solution was withdrawn with a syringe and injected into an HPLC-PDA (Waters Integrity system, separation module 2695, photodiode array detector 996, column Phenomenex Aqua C-18, 5 μm, 150×2 mm, with a constant flow rate of 200 μl/minute gradient from 5 to 35% of methanol in 30 minutes). The amount of 4-OH benzyl ITC was determined using calibration with benzyl ITC.

[2] = Stability of 4-hydroxybenzyl isothiocyanate in buffered aqueous solutions (citrate buffers); assay type: physicochemical; details: citrate buffer
Method: Stability of 4-Hydroxybenzyl Isothiocyanate in Buffered Media. Partially purified 4-hydroxybenzyl isothiocyanate was prepared by suspending 500 grams of S. alba seed meal in 2 liters of deionized water and extracting the mixture with 500 milliliters of ethyl acetate for 24 hours. The ethyl acetate extract was separated by decanting the top organic layer after centrifugation, dried with 100 g of anhydrous sodium sulfate over night, and concentrated under vacuum at laboratory temperature. The crude 4-hydroxybenzyl isothiocyanate extract was further purified by preparative column chromatography on silica gel (500 grams). […] Content of 4-hydroxybenzyl isothiocyanate within the fractions was verified by GC-MS using instrumentation and conditions as described previously. Fractions containing 4-hydroxybenzyl isothiocyanate were combined and concentrated under vacuum at laboratory temperature producing a yellowish, viscous fluid displaying only 4-hydroxybenzyl isothiocyanate and pentane/methylene chloride solvent peaks in the GC chromatogram. No further concentration of 4-hydroxybenzyl isothiocyanate was achieved using vacuum distillation because of its instability.
The pH stability of 4-hydroxybenzyl isothiocyanate was analyzed by incubating 25 μL of partially purified extract dissolved in 25 milliliters of eight different buffers with pH values ranging from 3.0 to 6.5 (FIG. 7). 0.1 M buffers were used, and were prepared by mixing 0.2 M sodium citrate and citric acid solutions in pre-calculated ratios ranging from 4 milliliters sodium citrate and 46 milliliters citric acid to 41 milliliters sodium citrate and 9 milliliters citric acid in a total volume of […]. Actual pH values of the buffers of 3.03, 3.52, 4.02, 4.49, 5.00, 5.46, 5.91, and 6.52 were verified using an Orion model 420A pH meter (Orion Research, Boston). At specific times during the incubation a 1-milliliter sample was withdrawn from the buffered reaction solution with a syringe and injected into a Waters Integrity HPLC system (2695 separation module, 996 PDA, and TMD) equipped with a 150×2 mm i.d., 5 μm Aqua C-18 column (Phenomenex). The instrument was operated at a constant flow rate of 200 μL/min with a gradient from 5 to 35% of methanol during each 30-minute run. Half-lives for 4 hydroxybenzyl isothiocyanate were estimated from straight lines obtained by plotting the natural logarithm of the normalized concentration versus time (FIG. 7). This experiment was repeated twice with two different meal extracts acquired by the same procedures from the same seed material. Half-lives from only one of the experiments are reported since the results for both experiments were similar.

wheat = details: effect no longer observed at 69 days post application (Bissey and Butler 1934); cited from earlier work
weeds = details: Harvey 1931; cited from earlier work
cotton = details: solutions sprayed directly on vegetative growth (Harvey 1931); cited from earlier work

Oc1ccc(CN=C=S)cc1 [4-hydroxybenzyl isothiocyanate]
Half Life ([1]; pH 3): 3.6 h
Half Life ([1]; pH 4): 2.1 h
Half Life ([1]; pH 5): 1.5 h
Half Life ([1]; pH 6): 0.1 h
Half Life ([1]; pH 7, listed as isothiocyanate precursor): 0.08 h
half-life ([1]; sodium acetate/acetic acid buffer, pH 3.0): 3.6 h
half-life ([2]; pH 3.0 buffer): 5.35 h
half-life ([2]; pH 3.5 buffer): 5.2 h
half-life ([2]; pH 4.0 buffer): 4.5 h
half-life ([2]; pH 4.5 buffer): 3.25 h
half-life ([2]; pH 5.0 buffer): 1.67 h
half-life ([2]; pH 5.5 buffer): 0.817 h
half-life ([2]; pH 6.0 buffer): 0.267 h
half-life ([2]; pH 6.5 buffer): 0.1 h

N#CS [SCN^−, ionic thiocyanate]
application rate causing inhibition of wheat germination (wheat): 342 kilograms SCN^−/ha
rate necessary for complete plant kill for 4 months (weeds): 1,366 kg SCN^−/ha
rate removing a large percentage of the weeds (weeds): 137 kilograms/SCN^− ha
rate at which cotton defoliation was possible (cotton): 8.6 kilograms SCN^−/ha
